In the supplement of paper PMC10307832:

Assays:
Idelalisib + Palbociclib = compound: CC[C@H](Nc1ncnc2[nH]cnc12)c1nc2cccc(F)c2c(=O)n1-c1ccccc1 [Idelalisib] + CC(=O)c1c(C)c2cnc(Nc3ccc(N4CCNCC4)cn3)nc2n(C2CCCC2)c1=O [Palbociclib] (partner 0.5 µM); test: relative viability (nuclei count vs DMSO), 5 days (fraction); higher = more cells survive
Procedure, shortened: (§1)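 Values are medians from duplicate plates. Each reflects relative viability, defined as the nuclei count of treated wells over that of vehicle wells. Lung cancer cell lines in 1536-well plates were pin-tool dosed one day after seeding with one drug alone or with a fixed anchor-drug dose plus five library-drug doses (not always all listed) in √10 steps, then fixed, stained and imaged at 4× after 5 days.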

Idelalisib + Pemetrexed = compound: CC[C@H](Nc1ncnc2[nH]cnc12)c1nc2cccc(F)c2c(=O)n1-c1ccccc1 [Idelalisib] + Nc1nc2[nH]cc(CCc3ccc(C(=O)N[C@@H](CCC(=O)O)C(=O)O)cc3)c2c(=O)[nH]1 [Pemetrexed] (partner 0.2 µM); test: as above
Procedure, shortened: as §1

Cell Line	relative viability (Idelalisib + Palbociclib; first compound 0.04 µM)	relative viability (Idelalisib + Palbociclib; first compound 0.1265 µM)	relative viability (Idelalisib + Palbociclib; first compound 0.4 µM)	relative viability (Idelalisib + Palbociclib; first compound 1.265 µM)	relative viability (Idelalisib + Palbociclib; first compound 4 µM)	relative viability (Idelalisib + Pemetrexed; first compound 0.04 µM)	relative viability (Idelalisib + Pemetrexed; first compound 0.1265 µM)	relative viability (Idelalisib + Pemetrexed; first compound 0.4 µM)	relative viability (Idelalisib + Pemetrexed; first compound 1.265 µM)	relative viability (Idelalisib + Pemetrexed; first compound 4 µM)
NCI-H838	0.207	0.262	0.186	0.213	0.171	0.253	0.238	0.225	0.237	0.257
HCC-44	1.02	0.887	0.984	1.04	0.96	0.684	0.664	0.652	0.586	0.687
LK-2	0.603	0.832		0.609	0.659	0.344	0.14		0.324	0.404
HCC-827	0.507	0.471	0.426	0.349	0.378	0.267	0.218	0.232	0.249	0.25
SW 1573	0.436	0.376	0.346	0.372	0.255	0.825	0.848	0.802	0.702	0.739
NCI-H2023	0.368	0.492	0.295	0.295	0.295	0.244	0.239	0.212	0.169	0.256
EPLC-272H	0.724	0.346	0.29	0.307	0.322	0.303	0.386	0.317	0.23	0.347
SK-LU-1	0.424	0.408	0.504	0.375	0.348	0.86	1.06	0.943	0.919	0.967
NCI-H358	0.178	0.138	0.137	0.153	0.153	0.18	0.171	0.182	0.168	0.157
ABC-1	0.546	0.6	0.664	0.686	0.709					
NCI-H1395	0.636	0.615	0.595	0.564	0.453	0.915	0.859	0.804	0.83	0.748
NCI-H2085	0.466	0.445	0.483	0.422	0.464	0.909	0.852	0.789	0.746	0.528
NCI-H1563						0.845	0.73	0.714	0.757	0.732
NCI-H2087	0.216	0.173	0.15	0.223	0.169	0.742	0.671	0.657	0.637	0.695
NCI-H322M	0.495	0.488	0.424	0.435	0.508	0.648	0.634	0.639	0.628	0.623
NCI-H1734	0.38	0.397	0.301	0.303	0.31	0.417	0.455	0.399	0.363	0.364
NCI-H2228	0.633	0.846	0.737	0.958	0.743	0.369	0.323	0.407	0.312	0.325

Cell Line	relative viability (Idelalisib + Palbociclib; first compound 0.04 µM)	relative viability (Idelalisib + Palbociclib; first compound 0.1265 µM)	relative viability (Idelalisib + Palbociclib; first compound 0.4 µM)	relative viability (Idelalisib + Palbociclib; first compound 1.265 µM)	relative viability (Idelalisib + Palbociclib; first compound 4 µM)	relative viability (Idelalisib + Pemetrexed; first compound 0.04 µM)	relative viability (Idelalisib + Pemetrexed; first compound 0.1265 µM)	relative viability (Idelalisib + Pemetrexed; first compound 0.4 µM)	relative viability (Idelalisib + Pemetrexed; first compound 1.265 µM)	relative viability (Idelalisib + Pemetrexed; first compound 4 µM)
EKVX	0.362	0.373	0.358	0.325	0.298	0.407	0.387	0.377	0.386	0.395
NCI-H596						0.52	0.441	0.49	0.536	0.487
NCI-H1975	0.586	0.653	0.429	0.583	0.406	0.292	0.334	0.29	0.276	0.303
NCI-H2170	0.398	0.434	0.384	0.347	0.336	0.292	0.254	0.268	0.262	0.29
NCI-H1666	0.615	0.6	0.645	0.689	0.645	0.821	0.835	0.844	0.847	0.996
PC-3 [JPC-3]	0.557	0.525	0.584	0.489	0.539	1.4	1.16	1.11	1.09	1.08
NCI-H1755	0.462	0.422	0.444	0.437	0.465	0.431	0.415	0.38	0.434	0.438
RERF-LC-KJ	1.12	1.06	1.02	0.965	0.759	0.46	0.44	0.46	0.491	0.448
NCI-H647	0.393	0.319	0.25	0.242	0.219	0.166	0.144	0.14	0.154	0.159
BEN	0.532	0.438	0.452	0.509	0.413	0.824	0.709	0.895	0.736	0.724
201T	0.375	0.344	0.322	0.36	0.294	0.352	0.318	0.357	0.314	0.32
LC-2-ad	0.454	0.518	0.513	0.503	0.49	0.282	0.276	0.25	0.267	0.26
NCI-H522	0.958	0.793	0.903	0.947	0.796	1.3	0.99	0.995	1.21	1.05
LCLC-97TM1	0.247	0.248	0.179	0.239	0.158	0.182	0.182	0.15	0.155	0.199
NCI-H1915	0.603	0.482	0.5	0.577	0.495	0.503	0.514	0.443	0.363	0.504
NCI-H3122	0.172	0.195	0.185	0.214	0.203	0.21	0.207	0.196	0.188	0.198
NCI-H1650	0.361	0.338	0.297	0.324	0.291	0.276	0.43	0.373	0.382	0.319
